Structures are written as SMILES.

The test system of one assay is activated mouse B cells. Kind of assay: Transmission electron microscopy of autophagosomes in activated mouse B cells. The conditions noted are these: SSI-4 treated B cells. Type of assay: cell-based. On the procedure: Cells were fixed in Trumps fixative (pH 7.2) at 4° C. overnight, spun down and the supernatant removed. They were re-suspended in 2% agarose which was allowed to cool and solidify. The cells in agarose were then post-fixed in 1% OsO4, dehydrated through a graded series of ethanols and embedded in Spurr resin. One hundred nm […] ultra-thin sections were mounted on 200-mesh copper grids, post-stained with lead citrate, and observed under a JEOL JEM-1400 transmission electron microscope at 80 kV.

For assay [1], the system named is influenza A infected mice. Kind of assay: Influenza A/PR8 infection of mice fed SSI-4 chow. It counts as in vivo, mouse. On the procedure:
For influenza virus infection, influenza A/PR8 strain (200 pfu/mouse) were diluted in FBS-free DMEM media on ice and inoculated in anesthetized mice through intranasal route. Sera were collected before and two weeks after infection for fatty acid component measurement. The mice were fed with control chow or SSI-4 chow for 1 week following influenza infection before switching to regular diet. The mediastinal lymph nodes were analyzed for GC B cell formation and Tfh differentiation. Mice were bred and maintained under specific pathogen-free conditions in Department of Comparative Medicine of Mayo Clinic with IACUC approval.
For analysis of surface markers, cells were stained in PBS containing 1% (w/v) bovine serum albumin on ice for 30 minutes, with anti-IgG1 (RMG1-1, Biolegend), anti-CD19 (ID3, Biolegend) anti-B220 (RA3-6B2, Biolegend), anti-CD4 (GK1.5, Biolegend), anti-CD8 (53-6.7, Biolegend), anti-CD25 (PC16, Biolegend), anti-GL7 (GL-7, Biolegend), anti-CD95 (Jo2, BD Biosciences), anti-CD138 (281-2, Biolegend), anti-IgD (11-26c.2a, Biolegend), anti-PD-1 (J43, ThermoFisher), anti-IgM (II/41, ThermoFisher). Antigen specific GC response was detected with tetramer NP-phycoerythrin conjugated with PE (Biosearch Technologies). CXCR5 was stained with biotinylated anti-CXCR5 (2G8) followed by staining with streptavidin-conjugated PE (both from BD Biosciences). Cell viability was assessed using the Fixable Dye Ghost 510 (Tonbo Bioscience) or Annexin V cell apoptosis kit with 7-AAD (ThermoFisher) following the manufacturer's protocol. Phosflow staining for phospho-S6 (S235/236) was performed using Phosflow Fix/Perm kit (BD Biosciences). Mitochondrial potential was measured by staining with 20 nM TMRM (ThermoFisher) following manufacturer's instructions. Flow cytometry was performed on the LSR II, LSR Fortessa (BD Biosciences) or Attune NxT (ThermoFisher) cytometers, and analysis was performed using FlowJo software (Tree Star).
For NP specific antibodies detection in sera, 96-well plates (2596; Costar) were coated with 2 μg/mL NP23-BSA in PBS overnight. Plates were washed twice (0.05% Tween 20 in PBS), blocked with 5% blocking protein (Bio-Rad) for 1 hour, and washed twice, and serially diluted serum samples were added for 1.5 hours at 37° C. Plates were washed four times and horseradish peroxidase (HRP)-conjugated detection Abs for IgG (Bethyl Laboratories) and IgG1 (Bethyl Laboratories) were added for 1 hour at RT, washed four times, and tetramethylbenzidine (TMB) substrate was added. Reaction was stopped using 2N H2SO4 and read at 450 nm. Similarly, antibodies IgG, IgG1 and IgG2c specific to influenza A/PR8 strain in sera were measured with influenza virus coated plate.

Assay [2] concerns C57BL/6 mice receiving bm12 splenocytes. Briefly: bm12 splenocyte transfer lupus (cGvHD) model fed SSI-4 chow. Type of assay: in vivo, mouse. The conditions noted are these: SSI-4 chow 30 mg/kg. As for the experimental part: MRL/MpJ-Fas^lpr mice and B6 (C)-H2-Ab1^bm12/KhEgJ (bm12) mice were purchased from the Jackson Laboratory. Six weeks old female MRL/MpJ-Fas^lpr mice were treated with control chow or SSI-4 chow (60 mg/kg, on a two-week SSI-4 chow/control-chow alternating schedule) ad libitum for 15 weeks. Proteinuria was measured using Albustix strips (Siemens). Kidney histology was done using routine H&E staining. Thirty million splenocytes from 8 weeks old B6 (C)-H2-Ab1^bm12/KhEgJ (bm12) mice were transferred into C57BL/6 mice intraperitoneally. Mice were fed with control chow or SSI-4 chow (30 mg/kg, on an one-week SSI-4 chow/control-chow alternating schedule) ad libitum for 8 weeks.
For analysis of surface markers, cells were stained in PBS containing 1% (w/v) bovine serum albumin on ice for 30 minutes, with anti-B220 (RA3-6B2, Biolegend), anti-CD4 (GK1.5, Biolegend), anti-CD138 (281-2, Biolegend), anti-PD-1 (J43, ThermoFisher). CXCR5 was stained with biotinylated anti-CXCR5 (2G8) followed by staining with streptavidin-conjugated PE (both from BD Biosciences). Cell viability was assessed using the Fixable Dye Ghost 510 (Tonbo Bioscience) following the manufacturer's protocol. Flow cytometry was performed on the LSR II, LSR Fortessa (BD Biosciences) or Attune NxT (ThermoFisher) cytometers, and analysis was performed using FlowJo software (Tree Star).

Take `CNC(=O)c1ccnc(NC(=O)N2CCC(Oc3ccccc3Cl)CC2)c1` [SSI-4, 2-{[4-(2-Chlorophenoxy)piperidine-1-carbonyl]amino}-N-methylpyridine-4-carboxamide]: the “autophagosome structures by transmission electron microscopy” value with activated mouse B cells is given as “increased structures with double layer membrane”. Also, the “production of anti-influenza total IgG, IgG1 and IgG2c in sera” value in assay [1] (ELISA) is on record as “significantly dampened”. Also, in assay [1] (SSI-4 chow for 1 week following infection vs control chow), the “body weight loss in influenza A infected mice” value is recorded as “substantially more severe weight loss”. In addition, the “frequency of GC B cells in mediastinal lymph nodes” value in assay [1] (day 11 following infection) is “significantly reduced”. Moreover, the “CD138+ plasmablast formation” value in assay [1] (influenza infection) was “did not affect”. Besides, the “expression of Bcl6 in B cells” value in assay [1] (mediastinal lymph nodes) is on record as “significantly reduced”. In assay [2], the “generation of CXCR5+PD-1+ follicular helper T cells” value was “reduced” and the “generation of IgD-CD138+ plasma cells” value was “reduced”. In addition, in assay [2] (one-week alternating schedule, 8 weeks, ELISA), the “serum anti-dsDNA autoantibody level” value is reported as “reduced”.

Source of the values: patent US11833144B2, “Treating autoimmune disease” (Mayo Foundation for Medical Education and Research, priority 2020, dated 2023).
